# Measured values: patent US6303761A, “Triaminepentaacetic acid compound and paramagnetic metal complex prepared from using the compound as ligand” (Department of Health The Executive Yuan, Republic of China, priority 1999, dated 2001)
# Where “and” joins values, the source holds several entries; their conditions need not be identical. Identical values can stand only once. Like-named read-outs stand apart in the source and are kept apart here.
# Tests used:
# pM value, Gd^3+ = settings: pH 7.4, TL 1.1×10^-5, TM 1.0×10^-6 mol dm^-3
# pM value, Cu^2+ = settings: pH 7.4, TL 1.1×10^-5, TM 1.0×10^-6 mol dm^-3
# pM value, Zn^2+ = settings: pH 7.4, TL 1.1×10^-5, TM 1.0×10^-6 mol dm^-3
# pM value, Ca^2+ = settings: pH 7.4, TL 1.1×10^-5, TM 1.0×10^-6 mol dm^-3
# [1] = Inner-sphere water molecules (Dy(III)-induced ^17 O-NMR chemical shift, X-ray, deduction); type: physicochemical
# Method: The chemical shift (d.i.s.) of the Dy(III)-induced ^17 O is determined by ^17 O-NMR. The relationship between the Dy(III) complex concentration and d.i.s. is shown in equation (14)
# d.i.s.=qΔ[Dy(ligand)n ](H2 O)q /[H2 O] (14)
# The slope of equation (14) is qΔ/[H2 O], and q refers to the inner-sphere water molecule. […] It is known that Dy(III) can bind with eight water molecules at low concentration, and q is in a linear relationship with the slope.
# [2] = cited from earlier work; for LD50: in vivo
# [3] = cited from earlier work
# [4] = Species distribution of the ligands at various pH values (SPE, SPEPLOT); type: physicochemical; settings: 7.0×10^-3 mol dm^-3 system
# Excerpt: The average difference between observed and calculated -log[H^+ ] was <0.04 throughout all titrations.
# When pH=7.0, the concentration of [H2 L]^3- is the maximum (97.5%). In the pH 3-5 range, the dominant species is the third protonated species [H3 L]^2-. When pH=3.7, the concentration of [H3 L]^2- is the maximum (87.75%). […] When pH=9.8, the concentration of [HL]^4- is the maximum (77.5%). In the pH 2-3 range, the dominant species is the fourth protonated species [H4 L]^-. When pH=2.3, the concentration of [H4 L]^- is the maximum (60.9%). In the pH range greater than 11, the dominant species is the deprotonated species [L]^5-.
# When pH=2.7, the concentration of [H4 L]^- is the maximum (55.9%). In the pH 3.5-7 range, the dominant species is the third protonated species [H3 L]^2-. When pH=5, the concentration of [H3 L]^2- is the maximum (97.7%). In the pH 7-9 range, the dominant species is the second protonated species [H2 L]^3-. When pH=8.1, the concentration of [H2 L]^3- is the maximum (86.5%). […] When pH=9.9, the concentration of [HL]^4- is the maximum (71.6%). In the pH range greater than 12, the dominant species is the deprotonated species [L]^5-. In the pH range less than 2, the dominant species is the totally protonated species [H5 L].
# When pH=2.8, the concentration of [H4 L]^- is the maximum (45.9%). In the pH 3.5-7.5 range, the dominant species is the third protonated species [H3 L]^2-. When pH=5.2, the concentration of [H3 L]^2- is the maximum (99.0%). In the pH 8-9.5 range, the dominant species is the second protonated species [H2 L]^3-. When pH=8.6, the concentration of [H2 L]^3- is the maximum (78.8%). In the pH 9.5-11 range, the dominant species is the first protonated species [HL]^4-. When pH=10.1, the concentration of [HL]^4- is the maximum (67.2%). In the pH range greater than 12, the dominant species is the deprotonated species [L]^5-. In the pH range less than 2, the dominant species is the totally protonated species [H5 L].
# [5] = Thermodynamic and conditional stability constants of the Zn^2+ complexes (potentiometric titration, program BEST); type: physicochemical; settings: 25.0 ± 0.1° C., aqueous Me4 NNO3, I = 0.10 mol dm^-3
# Method: (§1) The pH electrode was calibrated using two standard buffer solutions with pH 7.0±0.05 and pH 4.0±0.05 respectively. The ionic strength was 0.10 mol dm^-3 Me4 NNO3 ((CH3)4 NNO3). […] The titrant used was 0.1 mol dm^-3 NaOH with a titration amount of 0.005 ml/time.
# (§2) (1) Direct Potentiometric Titration: The metal ion and ligand is mixed in 1:1 molar ratio.
# (§3) (2) Ligand-ligand Competition Titration: The metal ion, ligand, and EDTA is mixed in 1:1:1 molar ratio.
# (§4) M: metal ion, L: organic ligand, ML: metal complex The conditional stability constant is defined by equation (2): [formula]
# (§5) The relationship between the conditional stability constant and the thermodynamic stability constant is defined by equation (3): [formula]
# (§6) K2^H [H^+ ]^2 + . . . }^-1 =KthermαH
# [6] = Thermodynamic and conditional stability constants of the Cu^2+ complexes (potentiometric titration, program BEST); type: physicochemical; settings: 25.0 ± 0.1° C., aqueous Me4 NNO3, I = 0.10 mol dm^-3
# Method: as §1, §2, §3, §4, §5, §6
# [7] = Thermodynamic and conditional stability constants of the Ca^2+ complexes (potentiometric titration, program BEST); type: physicochemical; settings: 25.0 ± 0.1° C., aqueous Me4 NNO3, I = 0.10 mol dm^-3
# Method: as §1, §2, §3, §4, §5, §6
# [8] = Protonation constants of the organic ligands (potentiometric titration, program PKAS); type: physicochemical; settings: for pKa: aqueous me4nno3, 25.0 ± 0.1° C., aqueous Me4 NNO3, I = 0.10 mol dm^-3
# Method: The ionic strength was 0.10 mol dm^-3 Me4 NNO3 ((CH3)4 NNO3). […] The titrant used was 0.1 mol dm^-3 NaOH with a titration amount of 0.005 ml/time.
# [9] = Relaxivity R1 and its pH dependence; settings: pH 6.3 ± 0.1
# [10] = type: physicochemical; settings: pH 7.4, plasma concentrations of Ca^2+, Cu^2+ and Zn^2+
compound,measurement,setting,value
"O=C(O)CN(CCN(CC(=O)O)CC(=O)O)CCN(CC(=O)O)CC(=O)O [DTPA, diethylenetriaminepentaacetic acid, reference compound]",pM (Gd^3+),"pM value, Gd^3+",17.14
same,pM (Cu^2+),"pM value, Cu^2+",16.06
same,conditional stability constant log KGdL',pH 7.4,18.14
same,pM (Zn^2+),"pM value, Zn^2+",13.39
same,pM (Ca^2+),"pM value, Ca^2+",5.45
[Cl][Dy]([Cl])[Cl] [DyCl3],slope of d.i.s. versus Dy(III) complex concentration,"[1]; ^17 O-NMR, FIG. 11",-445.6
"[Cl][Gd]([Cl])[Cl] [GdCl3, gadolinium chloride]","LD50, intravenous, animal",[2]; intravenously injected to animal bodies,0.3 to 0.5 mmol/kg
"O=C(O)CN1CCCN(CC(=O)O)CCN(CC(=O)O)CCN(CC(=O)O)CCN(CC(=O)O)CCCN(CC(=O)O)CCN(CC(=O)O)CCN(CC(=O)O)CC1 [H8 HEC, 1,4,7,10,14,17,20,23-octaazacyclohexacosane-1,4,7,10,14,17,20,23-octaacetic acid]",water solubility of the bimetallic lanthanide complex,[3],higher water solubility
"O=C(O)CN1CCN(CC(=O)O)CCN(CC(=O)O)CCN(CC(=O)O)CCN(CC(=O)O)CCN(CC(=O)O)CCN(CC(=O)O)CCN(CC(=O)O)CC1 [H8 OTEC, 1,4,7,10,13,16,19,22-octaazacyclotetracosane-1,4,7,10,13,16,19,22-octaacetic acid]",water solubility of the bimetallic lanthanide complex,[3],higher water solubility
"O=C(O)CN(CCCCN(CC(=O)O)CC(=O)O)CCCN(CC(=O)O)CC(=O)O [TTEA, 3,7,12-tri(carboxymethyl)-3,7,12-triazatetradecanedioic acid]",maximum concentration of first protonated species [HL]^4-,[4],67.2%
same,maximum concentration of fourth protonated species [H4 L]^-,[4],45.9%
same,maximum concentration of second protonated species [H2 L]^3-,[4],78.8%
same,maximum concentration of third protonated species [H3 L]^2-,[4],99.0%
same,pH of maximum concentration of [H2 L]^3-,[4],8.6 pH
same,pH of maximum concentration of [H3 L]^2-,[4],5.2 pH
same,pH of maximum concentration of [H4 L]^-,[4],2.8 pH
same,pH of maximum concentration of [HL]^4-,[4],10.1 pH
same,pH range in which [H2 L]^3- is dominant,[4],8-9.5 pH
same,pH range in which [H3 L]^2- is dominant,[4],3.5-7.5 pH
same,pH range in which [H4 L]^- is dominant,[4],2.5-3.5 pH
same,pH range in which [HL]^4- is dominant,[4],9.5-11 pH
same,pH range in which deprotonated species [L]^5- is dominant,[4],greater than 12 pH
same,pH range in which totally protonated species [H5 L] is dominant,[4],less than 2 pH
same,log K [ZnHL]/[ZnL][H],[5],4.7
same,log K [ZnL]/[Zn][L],[5],19.91
same,log K [CuHL]/[CuL][H],[6],9.5
same,log K [CuL]/[Cu][L],[6],17.33
same,pM (Cu^2+),"pM value, Cu^2+",12.63
same,"complexation with metal ions, in words",,very difficult to complex with metal ions
same,log K [CaHL]/[CaL][H],[7],8.2
same,log K [CaL]/[Ca][L],[7],13.48
same,pM (Zn^2+),"pM value, Zn^2+",13.08
same,"basicity, Σ PKa",[8],30.90
same,pKa,"[8]; read-out: first protonation constant log K1^H, [HL]/[L][H]",10.7
same,pKa,"[8]; read-out: fourth protonation constant log K4^H, [H4 L]/[H3 L][H]",3.04
same,pKa,"[8]; read-out: second protonation constant log K2^H, [H2 L]/[HL][H]",9.46
same,pKa,"[8]; read-out: third protonation constant log K3^H, [H3 L]/[H2 L][H]",7.71
same,pM (Ca^2+),"pM value, Ca^2+",7.64
O=C([O-])CN1CCN(CC(=O)[O-])CCN(CC(=O)[O-])CCN(CC(=O)[O-])CC1.[Dy+3] [[Dy(DOTA)]^-],q (inner-sphere water),[1]; Dy(III)-induced ^17 O-NMR shift,0.8
same,inner-sphere water molecules,[1]; ^17 O-NMR,only one
"CNC(=O)CN(CCN(CCN(CC(=O)[O-])CC(=O)NC)CC(=O)[O-])CC(=O)[O-].[Gd+3] [[Gd(DTPA-BMA)], diethylenetriamine pentaacetic acid bis(methylamide)-gadolinium(III)]",inner-sphere water molecule by X-ray single crystal analysis,[1]; X-ray single crystal analysis,one
same,Relaxivity R1,[9],3.74 dm^3 mmol^-1 s^-1 and 3.74 ± 0.05 dm^3 mmol^-1 s^-1
same,conditional stability constant (log Kcond),pH 4.0,11.25
same,stability constant under physiological conditions (pH 7.4),pH 7.4,16.95
same,modified selectivity constant log K sel',[10],9.03
same,LD50,[2],14.8 mmol/kg
"N,N-bis(2-pyridylmethyl)diethylenetriamine-N,N',N""-triacetate-gadolinium(III) [[Gd(DTPA-BP)]]",LD50,[2],3.2 mmol/kg
